In patent US12384753B2, “17-beta-hydroxysteroid dehydrogenase type 13 inhibitors and methods of use thereof” (Enanta Pharmaceuticals, Inc., priority 2021, dated 2025):

biological target: Recombinant human HSD17B13 (Homo sapiens (Human), UniProt Q7Z5P4); assay: HSD17B13 rapid-fire mass spectrometry assay (RF/MS assay); format: biochemical; settings: inhibition of HSD17B13; LTB4 10 μM, NAD+ 0.5 mM, RT 3 h; IC50 ranges A-E
Outline: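 Sf9-expressed human HSD17B13 (80 nM) with 10 μM LTB4 and 0.5 mM NAD+, incubated with compound (0–100 μM) for 3 h at RT in Tris pH 7.5/BSA/Tween-20. After formic acid quench, LTB4 conversion to 12-oxo-LTB4 measured by RapidFire MS/MS. IC50 from normalised residual activity, duplicates.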

Recombinant human HSD17B13, sequence (Q7Z5P4 20-300): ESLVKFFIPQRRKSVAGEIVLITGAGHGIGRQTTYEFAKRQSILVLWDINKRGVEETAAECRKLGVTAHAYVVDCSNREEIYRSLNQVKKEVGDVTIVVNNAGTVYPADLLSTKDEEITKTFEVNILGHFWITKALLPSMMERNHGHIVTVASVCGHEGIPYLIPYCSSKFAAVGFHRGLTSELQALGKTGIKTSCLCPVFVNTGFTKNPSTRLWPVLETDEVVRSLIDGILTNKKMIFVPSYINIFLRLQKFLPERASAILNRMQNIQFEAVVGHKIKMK

| Compound | IC50 [nM] |
| --- | --- |
| COc1cc(C(=O)O)ccc1NS(=O)(=O)N1Cc2nc(-c3ccc([C@H]4CC[C@H](C(F)(F)F)CC4)cc3)sc2C1 [Example 460] | 1000 to 100000 |
| COc1cc(C(=O)O)ccc1NS(=O)(=O)c1cccc(-c2ccc([C@H]3CC[C@H](C(C)(C)C)CC3)cc2)c1F [Example 478, 4-((4′-((1r,4r)-4-(tert-butyl)cyclohexyl)-2-fluoro-[1,1′-biphenyl])-3-sulfonamido)-3-methoxybenzoic acid] | 100 to 500 |
| COc1c(NS(=O)(=O)c2csc(-c3ccc([C@H]4CC[C@H](C(F)(F)F)CC4)cc3)n2)ccc2c(O)cccc12 [Example 649] | 1000 to 100000 |
| COc1cc(C(=O)O)c(F)cc1NS(=O)(=O)c1csc(-c2ccc(-c3ccsc3)cc2)n1 [Example 634] | 100 to 500 |
| COc1cc(C(=O)O)c(F)cc1NS(=O)(=O)c1csc(-c2ccc(-c3ccc(-c4ccc(C5=CCC(C(C)(C)C)CC5)cc4C(F)(F)F)cc3C(F)(F)F)cc2C(F)(F)F)n1 (centres unmarked) [Example 804] | 1000 to 100000 |
| CC1(C)CCC(c2ccc(-c3nc(S(=O)(=O)Nc4ccc(C(=O)O)cc4)cs3)cc2)CC1 [Example 660] | 100 to 500 |
| CNc1cc(C(=O)O)ccc1NS(=O)(=O)c1csc(-c2ccc(C3CCC(C)(C)CC3)cc2C(F)(F)F)n1 [Example 705] | 1000 to 100000 |
| COc1cc(C(=O)O)c(F)cc1NS(=O)(=O)c1coc(-c2ccc(C3CCC(OC(=O)N4CCOCC4)CC3)cc2)n1 (centres unmarked) [Example 630] | < 100 |
| COc1cc(C(=O)O)ccc1NS(=O)(=O)c1cccc(-c2ccc(C3=CCC(C(C)(C)C)CC3)cc2)c1F (centres unmarked) [Example 477, 4-((4″-(tert-butyl)-2-fluoro-2″,3″,4″,5″-tetrahydro-[1,1′:4′,1″-terphenyl])-3-sulfonamido)-3-methoxybenzoic acid] | 100 to 500 |
| COc1cc(C(=O)O)c(F)cc1NS(=O)(=O)c1csc(-c2ccc(C34CC5C[C@H](C3)C[C@H](C5)C4)cc2)n1 [Example 732] | 100 to 500 |
| COc1cc(C(=O)O)c(F)cc1NS(=O)(=O)c1ccc2nc(-c3ccc(C4CCCCC4)cc3)sc2c1 [Example 661] | 100 to 500 |
| COc1cc(C(=O)O)c(F)cc1NS(=O)(=O)c1csc(-c2ccc(-c3ccc(C45CC6C[C@H](C4)C[C@H](C6)C5)cc3)cc2OC)n1 [Example 744] | 100 to 500 |
| O=C(O)Cc1ccc(NS(=O)(=O)c2cnc(-c3ccc(F)cc3)s2)cc1 [Example 27] | 1000 to 100000 |
| COc1cc(C(=O)O)ccc1NS(=O)(=O)c1cnc(-c2ccc(-c3ccc(C(F)(F)F)cc3)cc2)s1 [Example 718] | < 100 |
| Cc1cnn(-c2ccc(S(=O)(=O)Nc3ccc(C(=O)O)cc3)cc2F)c1 [Example 54] | 1000 to 100000 |
| CCOc1c(C2=CCC(C)(C)CC2)ccc(-c2nc(S(=O)(=O)Nc3cc(F)c(C(=O)O)cc3OC)cs2)c1F [Example 568] | < 100 |
| COc1cc(C(=O)O)ccc1NS(=O)(=O)c1cccc(-c2ccc(C3CCC(F)(F)CC3)cc2)c1F [Example 476] | 100 to 500 |
| COc1cc(C(=O)O)ccc1NS(=O)(=O)N1Cc2nc(C3=CCC(c4ccccc4)CC3)sc2C1 (centres unmarked) [Example 359, 3-methoxy-4-((2-(1,2,3,6-tetrahydro-[1,1′-biphenyl]-4-yl)-5,6-dihydro-4H-pyrrolo[3,4-d]thiazole)-5-sulfonamido)benzoic acid] | < 100 |
| COc1cc(C(=O)O)c(F)cc1NS(=O)(=O)c1csc(-c2ccc(C3=CCC(C)(C)CC3)cc2F)n1 [Example 510] | < 100 |
| CCOc1cc(C(=O)O)ccc1NS(=O)(=O)c1cnc(-c2ccc(F)cc2)s1 [Example 1] | 500 to 1000 |

| Compound | IC50 [nM] |
| --- | --- |
| COc1cc(C(=O)O)c(F)cc1NS(=O)(=O)c1csc(-c2ccc(-c3ccc(C(F)(F)F)cc3)cc2)n1 [Example 740] | < 100 |
| COc1cc(C(=O)O)c(F)cc1NS(=O)(=O)c1csc(-c2ccc(-c3ccc(-c4ccc(C(F)(C(F)(F)F)C(F)(F)F)cc4)cc3C(F)(F)F)cc2C(F)(F)F)n1 [Example 797] | 100 to 500 |
| COc1cc(C(=O)O)c(F)cc1NS(=O)(=O)c1csc(-c2ccc(-c3ccc([C@H]4CC[C@H](C(C)C)CC4)cc3C(F)(F)F)cc2C(F)(F)F)n1 [Example 754] | 100 to 500 |
| COc1cc(C(=O)O)c(F)cc1NS(=O)(=O)c1csc(-c2ccc([C@H]3CC[C@@H](C(C)C)CC3)c(C)c2F)n1 [Example 807] | < 100 |
| COc1cc(C(=O)O)ccc1NS(=O)(=O)c1ccc(F)c(-c2ccc(C3CCCCC3)cc2)c1 [Example 437] | 100 to 500 |
| COc1cc(C(=O)O)c(F)cc1NS(=O)(=O)c1csc(-c2ccc(C3=CCC(C)(C)CC3)c(OC(F)(F)F)c2)n1 [Example 537] | < 100 |
| COc1cc(C(=O)O)c(F)cc1NS(=O)(=O)c1csc(-c2ccc(C3=CCC(C(F)(F)F)CC3)c(F)c2C)n1 (centres unmarked) [Example 599] | < 100 |
| COc1cc(C(=O)O)c(F)cc1NS(=O)(=O)c1ccc2sc(-c3ccc(C4CCC(C)(C)CC4)cc3C(F)(F)F)nc2c1 [Example 704] | 100 to 500 |
| COc1cc(C(=O)O)c(F)cc1NS(=O)(=O)c1ccc(-c2ccc(Cl)cc2)s1 [Example 232] | < 100 |
| COc1cc(C(=O)O)c(NS(C)(=O)=O)cc1NS(=O)(=O)c1csc(-c2ccc(C3CCC(C)(C)CC3)cc2C(F)(F)F)n1 [Example 701] | 1000 to 100000 |
| COc1cc(C(=O)O)c(F)cc1NS(=O)(=O)c1csc(-c2ccc(-c3cnoc3)cc2)n1 [Example 651] | 100 to 500 |
| CC[C@H]1CC[C@H](c2ccc(-c3nc(S(=O)(=O)Nc4cc5c(cc4OC)C(=O)NC5)cs3)cc2)CC1 [Example 574] | 1000 to 100000 |
| O=C(O)c1ccc2c(c1)CCCCN2S(=O)(=O)c1cnc(-c2ccc(F)cc2)s1 [Example 133] | 1000 to 100000 |
| CC[C@H]1CC[C@H](c2ccc(-c3nc4ccc(S(=O)(=O)Nc5cc(F)c(C(=O)O)cc5OC)cc4s3)cc2)CC1 [Example 658] | 1000 to 100000 |
| COc1cc(C(=O)O)c(F)cc1NS(=O)(=O)c1coc(-c2ccc([C@H]3CC[C@@H](C(F)(F)F)CC3)cc2C(F)(F)F)n1 [Example 678] | < 100 |
| COc1cc(C(=O)O)c(F)cc1NS(=O)(=O)c1csc(-c2ccc(-c3ccc(C4(C(F)(F)F)CC4)cc3)cc2C(F)(F)F)n1 [Example 794] | < 100 |
| COc1cc(C(=O)O)c(F)cc1NS(=O)(=O)c1csc(C#Cc2ccc(C(C)C)cc2)n1 [Example 241] | < 100 |
| O=S(=O)(Nc1ccc(Br)cc1C(F)F)c1cnc(-c2ccc(F)cc2)s1 [Example 111] | 1000 to 100000 |
| COc1cc(C(=O)O)c(F)cc1NS(=O)(=O)c1cnn(-c2ccc(C3CCCCC3)cc2)c1 [Example 656] | 100 to 500 |
| O=S(=O)(O)c1ccc(NS(=O)(=O)c2cnc(-c3ccc(F)cc3)s2)cc1 [Example 118] | > 100000 |

The next lines start with the values.

| IC50 [nM] | Compound |
| --- | --- |
| 100 to 500 | C=C(COC)c1ccc(-c2nc(S(=O)(=O)Nc3ccc(C(=O)O)cc3OC)cs2)cc1 [Example 406, 3-methoxy-4-((2-(4-(3-methoxyprop-1-en-2-yl)phenyl)thiazole)-4-sulfonamido)benzoic acid] |
| 100 to 500 | COc1cc(C(=O)O)c(F)cc1NS(=O)(=O)c1csc(-c2ccc([C@H]3CC[C@@H](C(C)(C)C)CC3)cc2)n1 [Example 761] |
| 100 to 500 | CCC[C@H]1CC[C@H](C2CCC(c3nc(S(=O)(=O)Nc4ccc(C(=O)O)cc4OC)cs3)CC2)CC1 (some centres unmarked) [Example 504] |
| 100 to 500 | COc1cc(C(=O)O)ccc1NS(=O)(=O)N1Cc2nc(-c3ccc4c(c3)CCCC4)sc2C1 [Example 386] |
| 500 to 1000 | COc1cc(C(=O)O)ccc1NS(=O)(=O)c1csc(N2CCN(C(=O)OCC3CCCCC3)CC2)n1 [Example 307, 4-((2-(4-((cyclohexylmethoxy)carbonyl)piperazin-1-yl)thiazole)-4-sulfonamido)-3-methoxybenzoic acid] |
| 1000 to 100000 | COc1cc(C(=O)O)ccc1NS(=O)(=O)c1ccc(-c2ccc(C3CCCCC3)cc2)nc1 [Example 346] |
| 500 to 1000 | COc1cc(C(=O)O)ccc1NS(=O)(=O)c1csc2ccccc12 [Example 136] |
| 100 to 500 | COc1cc(C(=O)O)c(F)cc1NS(=O)(=O)c1csc(-c2ccc(C3CC4CCC3C4)cc2)n1 (centres unmarked) [Example 592] |
| 100 to 500 | COc1cc(C(=O)O)ccc1NS(=O)(=O)c1csc(C#Cc2ccccc2)n1 [Example 150] |
| < 100 | COc1cc(C(=O)O)ccc1NS(=O)(=O)c1ccc(C#CC2CCCC2)c(F)c1 [Example 335, 4-((4-(cyclopentylethynyl)-3-fluorophenyl)sulfonamido)-3-methoxybenzoic acid] |
| 100 to 500 | COc1cc(C(=O)O)ccc1NS(=O)(=O)c1csc(N2CCCC(c3ccccc3)C2)n1 (centres unmarked) [Example 269] |
| 1000 to 100000 | O=C(O)c1ccc(NS(=O)(=O)c2csc(N3CCOCC3)n2)cc1 [Example 57, 4-((2-morpholinothiazole)-4-sulfonamido)benzoic acid] |
| 100 to 500 | COc1cc(C(=O)O)ccc1NS(=O)(=O)c1csc(-c2ccc(C3CCC(OC)CC3)cc2)n1 (centres unmarked) [Example 503] |
| 500 to 1000 | COc1cc(C(=O)O)ccc1NS(=O)(=O)c1csc(-c2ccc3ccccc3c2)n1 [Example 130] |
| < 100 | CCC[C@H]1CC[C@H](c2ccc(-c3nc(S(=O)(=O)Nc4cc(F)c(C(=O)O)cc4OC)cs3)cc2)CC1 [Example 715] |
| < 100 | COc1cc(C(=O)O)ccc1NS(=O)(=O)c1ccc(-c2ccc(F)cc2)s1 [Example 174] |
| 1000 to 100000 | COc1cc(C(=O)O)ccc1NS(=O)(=O)c1csc(N2CCOCC2)n1 [Example 166] |
| 100 to 500 | CCC1CC=C(c2ccc(-c3nc(S(=O)(=O)Nc4ccc(C(=O)O)cc4OC)co3)cc2)CC1 (centres unmarked) [Example 487] |
| 1000 to 100000 | COc1cc(C(=O)O)ccc1NS(=O)(=O)c1csc(-c2ccncc2)n1 [Example 100] |
| < 100 | COc1cc(C(=O)O)c(F)cc1NS(=O)(=O)c1csc(C#Cc2ccccc2Cl)n1 [Example 235] |
| 100 to 500 | COc1cc(C(=O)O)ccc1NS(=O)(=O)c1csc(-c2cccc3c2CCCC3)n1 [Example 157] |
| 500 to 1000 | COc1cc(C(=O)O)c(F)cc1NS(=O)(=O)c1csc(C2=CCC(C(C)C)CC2)n1 (centres unmarked) [Example 800] |
